Experiment: Antioxidant activity assessed as ABTS radical scavenging activity after 60 mins
Assay type: physicochemical

Structure (SMILES)	IC50
CCOC(=O)[C@@H]1C(=O)N(Cc2ccccc2)C[C@@H](ON2C(C)(C)CCCC2(C)C)[C@H]1c1ccc(C)cc1	98.4 µM
Cc1ccc([C@H]2[C@H](CO)CN(Cc3ccccc3)C[C@H]2ON2C(C)(C)CCCC2(C)C)cc1	0.09 µM
CCOC(=O)[C@@H]1C(=O)N(Cc2ccccc2)C[C@@H](O)[C@H]1c1ccccc1	> 100 µM
CCOC(=O)[C@@H]1C(=O)N(Cc2ccccc2)C[C@@H](O)[C@H]1c1ccc(C)cc1	> 100 µM
Cc1ccc([C@H]2[C@H](CO)CN(Cc3ccccc3)C[C@H]2O)cc1	85.3 µM
OC[C@@H]1CN(Cc2ccccc2)CC[C@H]1c1ccccc1	> 100 µM
OC[C@@H]1CN(Cc2ccccc2)C[C@@H](O)[C@H]1c1ccccc1	> 100 µM
CC1(C)CCCC(C)(C)N1O[C@@H]1CN(Cc2ccccc2)C[C@@H](CO)[C@@H]1c1ccc(F)cc1	0.095 µM
OC[C@@H]1CN(Cc2ccccc2)C[C@@H](O)[C@H]1c1ccc(F)cc1	9.61 µM
CCOC(=O)[C@@H]1C(=O)N(Cc2ccccc2)C[C@@H](ON2C(C)(C)CCCC2(C)C)[C@H]1c1ccc(F)cc1	15.9 µM
CCOC(=O)[C@@H]1C(=O)N(Cc2ccccc2)C[C@@H](ON2C(C)(C)CCCC2(C)C)[C@H]1c1ccccc1	12.2 µM
CCOC(=O)[C@@H]1C(=O)N(Cc2ccccc2)CC[C@H]1c1ccccc1	> 100 µM
CC(=O)OC[C@@H]1CN(Cc2ccccc2)C[C@@H](ON2C(C)(C)CCCC2(C)C)[C@H]1c1ccccc1	0.573 µM
CCOC(=O)[C@@H]1C(=O)N(Cc2ccccc2)C[C@@H](O)[C@H]1c1ccc(F)cc1	> 100 µM
CC1(C)CCCC(C)(C)N1O[C@@H]1CN(Cc2ccccc2)C[C@@H](CO)[C@@H]1c1ccccc1	0.093 µM
CC1(C)CCCC(C)(C)N1[O]	0.026 µM
O=C1O[C@H]([C@@H](O)CO)C(O)=C1O [ASCORBIC ACID]	25.6 µM
O=c1c(O)c(-c2ccc(O)c(O)c2)oc2cc(O)cc(O)c12 [QUERCETIN]	5.57 µM

Reference: ChEMBL document CHEMBL3804772, “Enantioselective synthesis and antioxidant activity of 3,4,5-substituted piperidine derivatives” (Bioorg Med Chem Lett, 2016)
